# Target: human PAD4 (hPAD4) (Homo sapiens (Human), UniProt Q9UM07)
# Assay: RFMS Human PAD4 Functional Assay 1
# Assay type: biochemical
# Settings: RFMS assay 1; 5 nM hPAD4, 250 μM BAEE substrate, 50 μM calcium, 37° C.
# Procedure, shortened: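 Recombinant hPAD4 (5 nM) was preincubated with compound (top 50 μM, 0.5% DMSO) for 30 min at 37 °C, then reacted with 250 μM BAEE for 90 min at 37 °C in pH 7.5 HEPES buffer with 50 μM calcium and 5 μM TPEN. Product was derivatized with phenyl glyoxal and quantified by RapidFire MS.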
# human PAD4 (hPAD4), sequence (Q9UM07 whole entry): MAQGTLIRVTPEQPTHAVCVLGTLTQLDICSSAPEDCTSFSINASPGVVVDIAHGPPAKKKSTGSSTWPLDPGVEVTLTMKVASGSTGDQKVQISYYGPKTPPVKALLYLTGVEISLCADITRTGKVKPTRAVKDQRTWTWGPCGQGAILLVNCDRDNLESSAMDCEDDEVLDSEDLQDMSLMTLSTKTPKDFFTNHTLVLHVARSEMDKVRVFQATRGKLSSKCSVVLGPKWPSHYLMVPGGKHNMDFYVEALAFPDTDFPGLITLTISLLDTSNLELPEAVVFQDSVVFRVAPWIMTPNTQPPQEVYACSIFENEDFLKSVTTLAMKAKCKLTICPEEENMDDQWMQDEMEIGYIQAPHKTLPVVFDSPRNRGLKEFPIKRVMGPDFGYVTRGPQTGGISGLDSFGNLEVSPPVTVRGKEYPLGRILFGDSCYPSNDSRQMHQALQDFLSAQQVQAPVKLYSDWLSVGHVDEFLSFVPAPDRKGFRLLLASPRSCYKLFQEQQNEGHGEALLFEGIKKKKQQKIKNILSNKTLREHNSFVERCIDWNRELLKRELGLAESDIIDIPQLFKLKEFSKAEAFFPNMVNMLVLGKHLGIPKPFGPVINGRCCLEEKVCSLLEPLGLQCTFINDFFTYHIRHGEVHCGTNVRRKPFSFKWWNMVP
row,Compound,IC50 [nM]
1,"Cc1c(-c2cc3ccc(-c4ccc(CNS(C)(=O)=O)cc4)cc3n2CC2CC2)nn2cc(C(=O)N3C[C@H](N)C[C@@H](F)C3)ccc12 [Example 370, N-{[4-(2-{6-[(3R,5R)-3-Amino-5-fluoropiperidine-1-carbonyl]-3-methylpyrazolo[1,5-a]pyridin-2-yl}-1-(cyclopropylmethyl)-1H-indol-6-yl)phenyl]methyl}methanesulfonamide]",130
2,"Cc1c(-c2cc3ccc(-c4cccc(CO)c4)cc3n2CC2CC2)nn2cc(C(=O)N3C[C@H](N)C[C@@H](F)C3)ccc12 [Example 371, [3-(2-{6-[(3R,5R)-3-Amino-5-fluoropiperidine-1-carbonyl]-3-methylpyrazolo[1,5-a]pyridin-2-yl}-1-(cyclopropylmethyl)-1H-indol-6-yl)phenyl]methanol]",1070
3,"Cc1c(-c2cc3ccc(-c4ccccc4C(N)=O)cc3n2CC2CC2)nn2cc(C(=O)N3C[C@H](N)C[C@@H](F)C3)ccc12 [Example 372, 2-(2-{6-[(3R,5R)-3-Amino-5-fluoropiperidine-1-carbonyl]-3-methylpyrazolo[1,5-a]pyridin-2-yl}-1-(cyclopropylmethyl)-1H-indol-6-yl)benzamide]",190
4,"Cc1c(-c2cc3ccc(-c4ccc(C(N)=O)cc4)cc3n2CC2CC2)nn2cc(C(=O)N3C[C@H](N)C[C@@H](F)C3)ccc12 [Example 373, 4-(2-{6-[(3R,5R)-3-Amino-5-fluoropiperidine-1-carbonyl]-3-methylpyrazolo[1,5-a]pyridin-2-yl}-1-(cyclopropylmethyl)-1H-indol-6-yl)benzamide]",200
5,"Cc1c(-c2cc3ccc(-c4cc(Cl)c(CO)cc4F)cc3n2CC2CC2)nn2cc(C(=O)N3C[C@H](N)C[C@@H](F)C3)ccc12 [Example 375, [4-(2-{6-[(3R,5R)-3-Amino-5-fluoropiperidine-1-carbonyl]-3-methylpyrazolo[1,5-a]pyridin-2-yl}-1-(cyclopropylmethyl)-1H-indol-6-yl)-2-chloro-5-fluorophenyl]methanol]",1360
6,"Cc1c(-c2ccc3cc(-c4nn5cc(C(=O)N6C[C@H](N)C[C@@H](F)C6)ccc5c4C)n(CC4CC4)c3c2)cc(F)c2[nH]c(=O)ccc12 [Example 376, 6-(2-{6-[(3R,5R)-3-Amino-5-fluoropiperidine-1-carbonyl]-3-methylpyrazolo[1,5-a]pyridin-2-yl}-1-(cyclopropylmethyl)-1H-indol-6-yl)-8-fluoro-5-methyl-1,2-dihydroquinolin-2-one]",120
7,"Cc1c(-c2cc3ccc(-c4ccc(C(N)=O)cc4Cl)cc3n2CC2CC2)nn2cc(C(=O)N3C[C@H](N)C[C@@H](F)C3)ccc12 [Example 377, 4-(2-{6-[(3R,5R)-3-Amino-5-fluoropiperidine-1-carbonyl]-3-methylpyrazolo[1,5-a]pyridin-2-yl}-1-(cyclopropylmethyl)-1H-indol-6-yl)-3-chlorobenzamide]",90
8,"Cc1cc(-c2ccc3cc(-c4nn5cc(C(=O)N6C[C@H](N)C[C@@H](F)C6)ccc5c4C)n(CC4CC4)c3c2)ccc1C(N)=O [Example 378, 4-(2-{6-[(3R,5R)-3-Amino-5-fluoropiperidine-1-carbonyl]-3-methylpyrazolo[1,5-a]pyridin-2-yl}-1-(cyclopropylmethyl)-1H-indol-6-yl)-2-methylbenzamide]",450
9,"Cc1c(-c2cc3ccc(-c4ccn5c(C)nnc5c4)cc3n2CC2CC2)nn2cc(C(=O)N3C[C@H](N)C[C@@H](F)C3)ccc12 [Example 379, (3R,5R)-1-{2-[1-(Cyclopropylmethyl)-6-{3-methyl-[1,2,4]triazolo[4,3-a]pyridin-7-yl}-1H-indol-2-yl]-3-methylpyrazolo[1,5-a]pyridine-6-carbonyl}-5-fluoropiperidin-3-amine]",160
10,"Cc1c(-c2cc3ccc(C(C)(C)O)nc3n2CC2CC2)nn2cc(C(=O)N3CCC[C@@H](N)C3)ccc12 [Example 380, 2-(2-{6-[(3R)-3-Aminopiperidine-1-carbonyl]-3-methylpyrazolo[1,5-a]pyridin-2-yl}-1-(cyclopropylmethyl)-1H-pyrrolo[2,3-b]pyridin-6-yl)propan-2-ol]",140
11,"Cc1c(-c2cc3ccc(C(C)(O)C(F)(F)F)nc3n2CC2CC2)nn2cc(C(=O)N3CC4CCC3[C@@H]4N)cc(F)c12 (stereo partly drawn) [Example 383, 2-(2-{6-[(7R)-7-Amino-2-azabicyclo[2.2.1]heptane-2-carbonyl]-4-fluoro-3-methylpyrazolo[1,5-a]pyridin-2-yl}-1-(cyclopropylmethyl)-1H-pyrrolo[2,3-b]pyridin-6-yl)-1,1,1-trifluoropropan-2-ol]",40
12,"Cc1c(-c2cc3ccc(C(C)(O)C4CC4)nc3n2CC2CC2)nn2cc(C(=O)N3CC4CCC3[C@@H]4N)cc(F)c12 (stereo partly drawn) [Example 384, 1-(2-{6-[(7R)-7-Amino-2-azabicyclo[2.2.1]heptane-2-carbonyl]-4-fluoro-3-methylpyrazolo[1,5-a]pyridin-2-yl}-1-(cyclopropylmethyl)-1H-pyrrolo[2,3-b]pyridin-6-yl)-1-cyclopropylethan-1-ol]",200
13,"COc1cc(C(=O)N2C[C@H](N)C[C@@H](F)C2)cn2nc(-c3cc4cccc(C5CCN(C(=O)[C@H]6CC[C@H](O)CC6)CC5)c4n3CC3CC3)c(C)c12 [Example 391, ((3R,5R)-3-Amino-5-fluoropiperidin-1-yl)(2-(1-(cyclopropylmethyl)-7-(1-((1r,4r)-4-hydroxycyclohexane-1-carbonyl)piperidin-4-yl)-1H-indol-2-yl)-4-methoxy-3-methylpyrazolo[1,5-a]pyridin-6-yl)methanone]",10
14,"COc1cc(C(=O)N2C[C@H](N)C[C@@H](F)C2)cn2nc(-c3cc4cccc(C5CCN(C(=O)[C@@H](C)OC)CC5)c4n3CC3CC3)c(C)c12 [Example 395, (R)-1-(4-(2-(6-((3R,5R)-3-Amino-5-fluoropiperidine-1-carbonyl)-4-methoxy-3-methylpyrazolo[1,5-a]pyridin-2-yl)-1-(cyclopropylmethyl)-1H-indol-7-yl)piperidin-1-yl)-2-methoxypropan-1-one]",140
15,"COCC(=O)N1CCC(c2cccc3cc(-c4nn5cc(C(=O)N6CCC[C@@H](N)C6)cc(OC)c5c4C)n(CC4CC4)c23)CC1 [Example 401, (R)-1-(4-(2-(6-(3-Aminopiperidine-1-carbonyl)-4-methoxy-3-methylpyrazolo[1,5-a]pyridin-2-yl)-1-(cyclopropylmethyl)-1H-indol-7-yl)piperidin-1-yl)-2-methoxyethan-1-one]",20
16,"COc1cc(C(=O)N2CCC[C@@H](N)C2)cn2nc(-c3cc4cccc(C5CCN(C(=O)[C@@H](C)OC)CC5)c4n3CC3CC3)c(C)c12 [Example 402, (R)-1-(4-(2-(6-((R)-3-Aminopiperidine-1-carbonyl)-4-methoxy-3-methylpyrazolo[1,5-a]pyridin-2-yl)-1-(cyclopropylmethyl)-1H-indol-7-yl)piperidin-1-yl)-2-methoxypropan-1-one]",60
17,"COc1cc(C(=O)N2CCC[C@@H](N)C2)cn2nc(-c3cc4cccc(C5CCN(C(=O)[C@H](C)OC)CC5)c4n3CC3CC3)c(C)c12 [Example 403, (S)-1-(4-(2-(6-((R)-3-Aminopiperidine-1-carbonyl)-4-methoxy-3-methylpyrazolo[1,5-a]pyridin-2-yl)-1-(cyclopropylmethyl)-1H-indol-7-yl)piperidin-1-yl)-2-methoxypropan-1-one]",460

# Reference: patent US12473304B2, “Heterocyclic PAD4 inhibitors” (BRISTOL-MYERS SQUIBB COMPANY, priority 2020, dated 2025)
